Experimental data taken from patent publication US20130316374A1, “BREAST CANCER DIAGNOSTICS” (IMBA - INSTITUT FUR MOLEKULARE BIOTECHNOLOGIE GMBH, priority 2010, published 2013).

B1: OPG: secreted decoy receptor that can reduce the RANKL activity (protein, UniProt O00300 22-401, looked up)
Tumor necrosis factor …: ETFPPKYLHYDEETSHQLLCDKCPPGTYLKQHCTAKWKTVCAPCPDHYYTDSWHTSDECLYCSPVCKELQYVKQECNRTHNRVCECKEGRYLEIEFCLKHRSCPPGFGVVQAGTPERNTVCKRCPDGFFSNETSSKAPCRKHTNCSVFGLLLTQKGNATHDNICSGNSESTQKCGIDVTLCEEAFFRFAVPTKFTPNWLSVLVDNLPGTKVNAESVERIKRQHSSQEQTFQLLKLWKHQNKDQDIVKKIIQDIDLCENSVQRHIGHANLTFEQLRSLMESLPGKKVGAEDIEKTIKACKPSDQILKLLSLWRIKNGDQDTLKGLMHALKHSKTYHFPKTVTQSLKKTIRFLHSFTMYKLYQKLFLEMIGNQVQSVKISCL

Key:
RANKL = RANKL expression in purified mammary epithelial cells (qRT-PCR, Western blot); format: in vivo, mouse; settings: nulliparous wild type females, 3 days after implantation/oral gavage
Description: a,b, MPA induces RANKL expression in mammary epithelial cells. Nulliparous wild type females were treated with oral gavage of DMBA or oil vehicle, s.c. implanted with slow-release MPA pellets, or treated with sham surgery. a, RANKL mRNA was determined in purified mammary epithelial cells by qRT-PCR 3 days after implantation/oral gavage. Data are shown as fold change compared to sham treatment+/−sem. n=3 mice per group. b, Expression of soluble (s) RANKL protein (19 kDa) was assayed on cell lysates from purified mammary epithelial cells by Western blot 3 days after treatment with oil vehicle, DMBA, MPA, or sham surgery. β-actin is shown as a loading control. […] Data are shown as percentage of tumor-free mice after the last DMBA challenge. No significant difference was found between the Cre+ and the Cre− control groups. Median tumor onset for Cre^+ controls was 9 days, for Cre^− controls 11 days, and for RANK^Δmam females 30 days after the last DMBA treatment. d, Representative Southern blot of MPA/DMBA-induced mammary tumors derived from RANK^flox/+; MMTV-Cre+ and RANK^flox/Δ; MMTV-Cre+ (RANK^Δmam) females. […]
Total RNA of tumors was prepared using the RNeasy Mini Kit (Qiagen), according to the manufacturer's instructions. Total RNA (2 μg) was subjected to quantitative (q)RT-PCR analysis. […]

[1] = test system: human SKBR3 breast cancer cells; test: Soft-Agar Colony Formation Assay; format: cell-based; settings: OPG (1 μg/ml) with RANKL (1 μg/ml)
Description: a, Western blotting for phosphorylated (P) IKKα, total IKKα, phosphorylated (P) p65 NFκB, total p65 NFκB, phosphorylated (P) IκBα, and total IκBα in isolated primary mouse mammary gland epithelial cells (MECs) in response to RANKL stimulation (1 μg/ml). […] is shown as loading control. b, Western blotting for IKKα, IKKβ, IKKγ, phosphorylated (P) p65 NFκB, total p65 NFκB, phosphorylated (P) IκBα, and total IκBα in pooled late stage mammary adenocarconimas (n=4 for each lane) that developed in control, RANK^Δmam, and IKKα^Δmam females. β-actin is shown as loading control c, Expression of RANK, CyclinD1, and p21 mRNA in late stage mammary adenocacinomas that developed in control, RANK^Δmam, and IKKα^Δmam females. Expression was determined by qRT-PCR. Data are mean values+/−sem. n=4 per group. d, Soft-Agar Colony Formation Assay. Growth of human SKBR3 breast cancer cells in soft agar in response to stimulation with RANKL (1 μg/ml) or EGF (100 ng/ml). […] Apoptosis was detected by immunostaining for active Caspase 3. f, Apoptotic nuclei of epithelial cells (arrows) are shown for representative mammary gland sections. Magnifications ×40. g, Quantification of mammary epithelial apoptosis. A minimum of 5000 nuclei was counted for each mouse. […]

| Molecule | RANKL mRNA and protein expression in mammary epithelial cells (RANKL) | RANKL-induced colony formation in soft agar [1] |
| --- | --- | --- |
| Cc1c2ccccc2c(C)c2c1ccc1ccccc12 [DMBA, dimethylbenz[a]anthracene] | not |  |
| B1 |  | prevented |
